# Test results as given in patent US9049864B2, “Pyridazinone herbicidal compounds” (Syngenta Limited, priority 2012, dated 2015).
# How the values were obtained:
# Experiment in all cases: Post-emergence herbicidal glasshouse test, percentage damage to the plant
# Type in all cases: in vivo
# [1] = tested on: Echinochloa crus-galli (ECHCG)
# How it was run: (§1)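 Activity appears as a score from 1 (0-19% damage) to 5 (80-100%), assessed 13 days after a post-emergence spray of 8-day-old plants. Comparative runs used 250, 500 and 1000 g/ha; the standard rate was 1000 g/ha, formulated in acetone/water (50:50) with 0.5% Tween 20.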
# [2] = tested on: Ipomoea hederacea (IPOHE)
# How it was run: as §1
# [3] = tested on: Alopecurus myosuroides (ALOMY)
# How it was run: as §1
# Solanum nigrum (SOLNI) = tested on: Solanum nigrum (SOLNI)
# How it was run: as §1
# Setaria faberi (SETFA) = tested on: Setaria faberi (SETFA)
# How it was run: as §1
# [4] = tested on: Amaranthus retoflexus (AMARE)
# How it was run: as §1
# [5] = post-emergence, 1000 g/ha, evaluated after 13 days
# [6] = comparative experiment, rate 250 g/ha
# [7] = comparative experiment, rate 500 g/ha
# [8] = comparative experiment, rate 1000 g/ha
Compound,"POST Application ECHCG, percentage damage (five point scale) [1, 5]","POST Application IPOHE, percentage damage (five point scale) [2, 5]","POST Application ALOMY, percentage damage (five point scale) [3, 5]","POST Application SOLNI, percentage damage (five point scale) (Solanum nigrum (SOLNI); [5])","POST Application SETFA, percentage damage (five point scale) (Setaria faberi (SETFA); [5])","POST Application AMARE, percentage damage (five point scale) [4, 5]",also measured
CC1=NN(C)C(=O)C(n2c(C)cc3ccccc32)C1=O (stereo not drawn) [Compound 4.026],2 (2=20-39%),5 (5=80-100%),2 (2=20-39%),5 (5=80-100%),3 (3=40-59%),4 (4=60-79%),–
Cc1nn(C)c(=O)c(-n2c(Cl)c(Cl)c3ccccc32)c1OC(=O)SC(C)(C)C [Compound 3.007],1 (1=0-19%),5 (5=80-100%),1 (1=0-19%),5 (5=80-100%),1 (1=0-19%),5 (5=80-100%),–
CC1=NN(C)C(=O)C(n2cc(Cl)c3ccccc32)C1=O (stereo not drawn) [Compound 1.027],3 (3=40-59%),4 (4=60-79%),1 (1=0-19%),5 (5=80-100%),1 (1=0-19%),4 (4=60-79%),–
"Cc1cc(Cl)nn1C1C(=O)C=NN(C)C1=O (stereo not drawn) [Compound B, reference compound]",–,–,–,–,–,–,"POST Application ECHCG, percentage damage (five point scale) [1, 6]: 1 (1=0-19%); POST Application ECHCG, percentage damage (five point scale) [1, 7]: 1 (1=0-19%); POST Application ECHCG, percentage damage (five point scale) [1, 8]: 2 (2=20-39%); POST Application IPOHE, percentage damage (five point scale) [2, 6]: 1 (1=0-19%); POST Application IPOHE, percentage damage (five point scale) [2, 7]: 2 (2=20-39%); POST Application IPOHE, percentage damage (five point scale) [2, 8]: 5 (5=80-100%); POST Application ALOMY, percentage damage (five point scale) [3, 6]: 1 (1=0-19%); POST Application ALOMY, percentage damage (five point scale) [3, 7]: 1 (1=0-19%); POST Application ALOMY, percentage damage (five point scale) [3, 8]: 2 (2=20-39%); POST Application SOLNI, percentage damage (five point scale) (Solanum nigrum (SOLNI); [6]): 2 (2=20-39%); POST Application SOLNI, percentage damage (five point scale) (Solanum nigrum (SOLNI); [7]): 3 (3=40-59%); POST Application SOLNI, percentage damage (five point scale) (Solanum nigrum (SOLNI); [8]): 4 (4=60-79%); POST Application SETFA, percentage damage (five point scale) (Setaria faberi (SETFA); [6]): 1 (1=0-19%); POST Application SETFA, percentage damage (five point scale) (Setaria faberi (SETFA); [7]): 1 (1=0-19%); POST Application SETFA, percentage damage (five point scale) (Setaria faberi (SETFA); [8]): 1 (1=0-19%); POST Application AMARE, percentage damage (five point scale) [4, 6]: 2 (2=20-39%); POST Application AMARE, percentage damage (five point scale) [4, 7]: 3 (3=40-59%); POST Application AMARE, percentage damage (five point scale) [4, 8]: 4 (4=60-79%)"
Cc1cccc2ccn(C3C(=O)C=NN(C)C3=O)c12 (stereo not drawn) [Compound 1.008],1 (1=0-19%),2 (2=20-39%),1 (1=0-19%),4 (4=60-79%),1 (1=0-19%),1 (1=0-19%),–
CN1N=C(C2CC2)C(=O)C(n2c(Cl)c(Cl)c3ccccc32)C1=O (stereo not drawn) [Compound 2.026],1 (1=0-19%),5 (5=80-100%),1 (1=0-19%),5 (5=80-100%),2 (2=20-39%),4 (4=60-79%),–
CN1N=CC(=O)C(n2ccc3ccc(Br)cc32)C1=O (stereo not drawn) [Compound 1.006],1 (1=0-19%),1 (1=0-19%),1 (1=0-19%),4 (4=60-79%),1 (1=0-19%),1 (1=0-19%),–
"Cc1nn(C)c(=O)c(-n2c(Cl)c(Cl)c3ccccc32)c1OC(=O)SC(C)C [Compound 3.001, [5-(2,3-dichloroindol-1-yl)-1,3-dimethyl-6-oxo-pyridazin-4-yl]isopropylsulfanylformate]",1 (1=0-19%),5 (5=80-100%),1 (1=0-19%),5 (5=80-100%),1 (1=0-19%),5 (5=80-100%),–
C=CCC1=NN(C)C(=O)C(n2c(Cl)c(Cl)c3ccccc32)C1=O (stereo not drawn) [Compound 2.025],2 (2=20-39%),5 (5=80-100%),1 (1=0-19%),5 (5=80-100%),2 (2=20-39%),2 (2=20-39%),–
CC1=NN(C)C(=O)C(n2c(Cl)c(Cl)c3ccc(Cl)cc32)C1=O (stereo not drawn) [Compound 1.020],4 (4=60-79%),5 (5=80-100%),1 (1=0-19%),5 (5=80-100%),1 (1=0-19%),5 (5=80-100%),–
CN1N=CC(=O)C(n2ccc3c(Br)cccc32)C1=O (stereo not drawn) [Compound 1.005],1 (1=0-19%),2 (2=20-39%),1 (1=0-19%),5 (5=80-100%),3 (3=40-59%),2 (2=20-39%),–
CN1N=CC(=O)C(n2ccc3ccccc32)C1=O (stereo not drawn) [Compound 1.014],4 (4=60-79%),4 (4=60-79%),1 (1=0-19%),5 (5=80-100%),1 (1=0-19%),3 (3=40-59%),–
CC1=NN(C)C(=O)C(n2c(Br)c(Cl)c3ccccc32)C1=O (stereo not drawn) [Compound 1.026],4 (4=60-79%),5 (5=80-100%),2 (2=20-39%),5 (5=80-100%),3 (3=40-59%),5 (5=80-100%),–
